Experiments:
TGFβ1-induced hHSC = assay: α-SMA ELISA in TGFβ1-induced hHSC; type: cell-based, human
Method: (§1) The human primary hepatic stellate cells (hHSC) (Innoprot) were cultured under standard conditions, as described above.
The level of α-SMA was measured using a Sandwich ELISA. Briefly, the wells of an ELISA plate were first coated with the capture antibody (mouse monoclonal anti-ACTA2, Abnova) at 4° C. overnight. […] The cell lysates were transferred into the wells for binding to the capture antibody for a period of 2 h at room temperature. After the washing procedure, the detection antibody (biotinylated mouse monoclonal anti-ACTA2, Abnova) was added for 2 hours at room temperature followed by 3 washes. […] Upon oxidation, TMB forms a water-soluble blue reaction product that becomes yellow with addition of sulfuric acid (solution stop), enabling accurate measurement of the intensity at 450 nm using a spectrophotometer. The developed color is directly proportional to the amount of α-SMA present in the lysate.
as §1

CDFF-fed mice = assay: mouse fibrosing-NASH model, CDFF diet (8 weeks); type: in vivo, C57Bl/6J mice
Method: The preventive effects of the combinations of elafibranor with selonsertib, GKT-831 or GS-0976 were assessed in mice fed a choline-deficient, […] diet (CDAA) supplemented with 2% cholesterol, 30% milk fat diet and high fructose corn syrup 55 (55% fructose/45% glucose for a final concentration of 42 g/L) in drinking water (Mells et al J Nutr Biochem 2015) (CDFF diet). 5-6 weeks old male C57Bl/6J mice were fed a control (CSAA) diet (n=4), CDFF (n=12), or CDFF supplemented with elafibranor (1 or 3 mg/kg/day), selonsertib (30 mg/kg/day), GKT-831 ([…]) alone or in combination (n=8 per group) for 8 weeks.
The body weight, the food and water intake were monitored twice per week. On the last day of treatment, plasma samples were obtained from retro-orbital blood sampling and mice were sacrificed after a 6 h-fasting period. The liver was rapidly excised for biochemical and histological analyses. […]
A technician blinded to the source of each liver specimen performed histological examinations. […] Briefly, steatosis, lobular inflammation and hepatocyte ballooning were scored. […]
(§2) Using Quant Center software (3D Histech, including Pattern Quant and Histo Quant modules), collagen-stained areas were quantified. […] The fibrosis area was then expressed as the percentage of the collagen surface to the whole tissue per animal.
(§3) The hepatic collagen content was determined using the appropriate QuickZyme kit (Total collagen assay, cat # QZB-totcol2). […]
(§4) Complete hydrolysis of tissue samples in 6M HCl at 95° C. is required before dosing the hydroxyproline. The assay results in the generation of a chromogen with a maximum absorbance at 570 nm. Results are expressed as mg of collagen/g of liver. […]
The plasmatic concentration of PIIINP was determined using an ELISA assay from Cloud-Clone Corp (cat # SEA573Mu), according to the manufacturer's instructions. […] The enzyme-substrate reaction is terminated by the addition of sulphuric acid solution and the color change is measured spectrophotometrically at a wavelength of 450 nm±10 nm. […]

[1] = tested on: rats fed a CDAA+1% cholesterol diet; assay: chronic CDAA+1% cholesterol fibrosing NASH-model of rats (12 weeks); type: in vivo, Wistar rats; settings: liver; Percentage over the untreated CDAA + 1% cholesterol rats; GFT505 3 mg/kg/d, OCA 10 mg/kg/d
Method: Evaluation of Elafibranor, OCA and the combination Elafibranor+OCA in a chronic CDAA+1% cholesterol model (12 weeks).
The preventive effects of Elafibranor alone, OCA alone and the combination of both were assessed in a fibrosing NASH-model of rats fed a CDAA+1% cholesterol diet. 150-175 g male Wistar rats were fed a control (CSAA) diet, CDAA+1% cholesterol diet, or CDAA+1% cholesterol diet supplemented with Elafibranor 1, 3 and 10 mg/kg/day, OCA 10 and 30 mg/kg/day or combined drugs (Elafibranor 1, 3 and 10 mg/kg/day combined to OCA 10 mg/kg/day) for 12 weeks.
The body weight and the food intake were monitored twice per week. On the last day of treatment, rats were sacrificed after a 6 h fasting period. The liver was rapidly excised for biochemical and histological studies.
A technician blinded to the source of each liver specimen performed histological examinations. Virtual slides were generated using the Pannoramic 250 scanner from 3D Histech. […] Briefly, steatosis, lobular inflammation and hepatocytes ballooning were scored. […]
as §2, §3, §4
Quantitative PCR was then carried out using the CFX96 TOUCH Real-Time PCR Detection System (Biorad). […]
Expression levels were normalized using the expression of RPLP0 gene as a housekeeping gene of reference in samples. […] Expression levels were determined using the standard curve equation for both the housekeeping gene and the target gene (taking into account the specific PCR efficiency of each target gene).

CCCCOCCOc1ccc(-c2ccc3c(c2)/C=C(/C(=O)Nc2ccc([S@@+]([O-])Cc4cncn4CCC)cc2)CCCN3CC(C)C)cc1 [CVC, Cenicriviroc]
α-SMA inhibition, single agent (TGFβ1-induced hHSC; 5 μM alone, TGFβ1-induced hHSC): does not show any antifibrotic activity
antifibrotic effect (α-SMA), single agent, in words (TGFβ1-induced hHSC; TGFβ1-activated hHSC, all doses): did not show a significant effect at all doses

CN(C)c1cccc(-c2c3c(=O)n(-c4ccccc4Cl)[nH]c3cc(=O)n2C)c1 [GKT-831, 2-(2-chlorophenyl)-4-[3-(dimethylamino)phenyl]-5-methyl-1H-pyrazolo[4,3-c]pyridine-3,6(2H,5H)-dione]
effect on NASH and fibrosis (inflammatory infiltrates, NAFLD activity score, fibrosis) (CDFF-fed mice; GKT-831 60 mg/kg/day, elafibranor 1 mg/kg/day): no beneficial effect

COc1ccccc1[C@H](Cn1c(=O)n(C(C)(C)C(=O)O)c(=O)c2c(C)c(-c3ncco3)sc21)OC1CCOCC1 [GS-0976]
effect on liver fat and body weight (CDFF-fed mice; GS-0976 30 mg/kg/day alone): mild beneficial effect

CC[C@H]1[C@@H](O)[C@@H]2[C@H](CC[C@]3(C)[C@@H]([C@H](C)CCC(=O)O)CC[C@@H]23)[C@@]2(C)CC[C@@H](O)C[C@@H]12 [OCA, obeticholic acid]
CCR5 mRNA level (marker of inflammation) [1]: 81% ± 28%
TGFβ1 mRNA level [1]: 110% ± 23%
TIMP1 mRNA level [1]: 110% ± 43%

Cc1cc(F)c(C(=O)Nc2cccc(-c3nncn3C(C)C)n2)cc1-n1cnc(C2CC2)c1 [Selonsertib, selonsertib]
hepatic fibrosis (histology, hepatic collagen content, release of PIIINP and TIMP-1) (CDFF-fed mice; 8 weeks, elafibranor 3 mg/kg/day, selonsertib 30 mg/kg/day): improved hepatic fibrosis

Reference: patent publication US11484517B2, “Combination comprising a PPAR agonist such as elafibranor and an acetyl-CoA carboxylase (ACC) inhibitor” (GENFIT, priority 2017, dated 2022)
